The test system of test [1] is mice subjected to middle cerebral artery occlusion. As to the kind of experiment: Focal cerebral ischemia by middle cerebral artery occlusion, infarct volume. Type of test: in vivo. The conditions noted are these: for Infarct Volume, individual animal / Infarct Volume, Mean: mice, MCA occlusion; for Infarct Volume, individual animal: 24 hours. The source says:
Young adult male mice (C57B1/J6, Jackson Laboratories) weighing 20-25 g, were given free access to food and water prior to experimentation.
(§1) Ischemia was produced by occluding the left middle cerebral artery (MCA) with a silicon-coated 8-0 nylon monofilament under anesthesia as described (Huang, Z et al., J Cereb Blood Flow Metab, 1996, 16:981-987, Huang, Z et al., Science, 1994, 265:1883-1885, Hara, H et al., J Cereb Blood Flow Metab, 1997, 1:515-526). Arterial blood pressure, heart rate, arterial oxygen pressure, and partial pressure of carbon dioxide were monitored as described (Huang, Z et al., J Cereb Blood Flow Metab, 1996, 16:981-987, Huang, Z et al., Science, 1994, 265:1883-1885, Hara, H et al., J Cereb Blood Flow Metab, 1997, 1:515-526).
11,12 EET (Sigma Chemical Co., St Louis, Mo.) or vehicle was administered by an infusion pump (Harvard Apparatus, South Natick, Mass.) with a tethering device (Instech, Plymouth Meeting, Pa.) into the femoral vein at the rate of 0.2 ml/hour for 2 hours beginning after the onset of ischemia to deliver a dose of 30, 100, and/or 300 μg/kg/hour. Control animals received the equivalent amount of vehicle alone. During infusion, the anesthesia was discontinued. […] After infusion, the animals were re-anesthetized with halothane and the venous catheter was removed. The filaments were withdrawn after 2 hours and after 24 hours, and mice were sacrificed. Brains were divided into five coronal 2-mm sections using a mouse brain matrix (RBM-200C, Activated Systems, Ann Arbor, Mich., USA). Infarction volume was quantitated with an image analysis system (M4, St. Catharines, Ontario, Canada) on 2% 2,3,5-triphenyltetrazolium chloride (Sigma Chemical Co., St Louis, Mo.) stained 2-mm slices.
(§2) Data is expressed as means ±SE. Statistical evaluation was performed by Student's t-test to compare infarct volumes between groups. Analysis of variance with repeated measures followed by Dunnett's t-test was used to test the significance of rCBF and resistance changes between groups. p<0.05 was considered statistically significant.

In test [2] the test system is regional cerebral blood flow (rCBF) in mice. As to the kind of experiment: Regional cerebral blood flow by laser Doppler flowmetry after MCA occlusion. The test is classed as in vivo. As to the method: In a separate set of ventilated, halothane-anesthetized animals, regional cerebral blood flow (rCBF) was determined at the margins (“penumbra”) of ischemic infarcts using laser Doppler flowmetry (Perimed, PF-2B, Stockholm, Sweden) and recorded on a MacLab/8 data acquisition system (AD Instruments, Milford, Mass.). the left femoral artery and vein were cannulated for blood pressure measurement, blood gas determination and drug administration, a fiberoptic probe (Perimed PF-319:2, diameter=0.5 mm) was fixed to the skull, 4 mm lateral and 2 mm posterior to bregma on the ipsilateral hemisphere and away from large pial vessels. This coordinate identifies the site on the convex brain surface within the vascular territory supplied by the distal segment of the MCA (Huang, Z et al., Science, 1994, 265:1883-1885; Yang, G et al., Stroke, 1994, 25:165-70). rCBF was recorded continuously before, during and after MCA occlusion. The mean values after MCA occlusion and before administration were taken as baseline, and the data thereafter were expressed as percentages of the baseline value. The percent change in cerebrovascular resistance was calculated using the following formula: Δ%R=Δ% MABP/Δ% rCBF, where Δ% MABP is percent change in mean arterial blood pressure.
as §2
Physiological variables during laser-Doppler flowimetry in anesthetized, ventilated, EET-treated and vehicle-treated mice are shown in FIGS. 2 and 3. Values are reported as mean +/− SEM. CBF denotes cerebral blood flow; MABP indicates mean arterial blood pressure.
FIG. 2 is a graph showing regional CBF changes in EET-treated and vehicle-treated mice for 80 min after EET (300 μg/kg total dose) or vehicle infusion at a constant rate of 100 μl/kg/min over 20 min. Error bars denote standard error of the mean (SEM); CBF change with baseline control was determined by one-way ANOVA followed by Fisher's protected least-squares difference test. The increase in rCBF began at 5-10 minutes and achieved statistical significance at 10-15 minutes after infusion. Maximum values achieved at 40-60 min reached 50% above baseline levels.

Test [3] has as its system mean arterial blood pressure (MABP) in mice. As to the kind of experiment: Mean arterial blood pressure in animals with focal cerebral ischemia. Type of test: in vivo. The conditions noted are these: FIG. 3.
Source text: as §1
In a separate set of ventilated, halothane-anesthetized animals, regional cerebral blood flow (rCBF) was determined at the margins (“penumbra”) of ischemic infarcts using laser Doppler flowmetry (Perimed, PF-2B, Stockholm, Sweden) and recorded on a MacLab/8 data acquisition system (AD Instruments, Milford, Mass.). the left femoral artery and vein were cannulated for blood pressure measurement, blood gas determination and drug administration, a fiberoptic probe (Perimed PF-319:2, diameter=0.5 mm) was fixed to the skull, 4 mm lateral and 2 mm posterior to bregma on the ipsilateral hemisphere and away from large pial vessels. […]

Test [4] concerns rat cerebellar granule cell (CGC) cultures. As to the kind of experiment: H2O2 oxidative stress, apoptosis scored by Hoechst stain for nuclear condensation. Particulars: H2O2 225 μM for 10 min, 11,12-EET 1.2 μM present; without 11,12-EET 87.6%; p<0.01. The test is classed as cell-based. Here is the method: (§3) Cerebellar cortices of postnatal day 7 rat pups were isolated, incubated in 0.25% trypsin for 20 min and triturated with a 10-cc Falcon pipette. Cells were plated on Falcon plastic dishes ˜100,000 cells/cm^2 in BME medium containing 25 mM KCl. Cell cultures were maintained in a humidified 5% CO2 /37° C. incubator. 10 μM AraC was added from day 2-3 in vitro to suppress glial proliferation. Cells were studied at day 7-8 in vitro.
(§4) To test the effects of EET during oxidative stress, rat cerebellar granule cell (CGC) cultures were subjected to H2O2 treatment (225 μM for 10 min.). Less apoptosis was found at 24 hour when 11,12-EET (1.2 μM) was present compared to cell culture without 11,12-EET (51.7% vs. 87.6% respectively, p<0.01, scored by Hoechst stain for nuclear condensation). In addition, superoxide production (as monitored by oxidation of dihydroethidine) was decreased when 11,12-EET was present in CGC cultures during H2O2 treatment.

Test [5] has the same test system. As to the kind of experiment: Dihydroethidine study to monitor intracellular superoxide production. The conditions noted are these: CGC cultures during H2O2 treatment, 11,12-EET 1.2 μM. The test is classed as cell-based. As to the method:
as §3
Dihydreothidine study to monitor intracellular superoxide production: 10 μl of dihydroethidine stock solution (1 mg/cc) in dimethylsulfoxide (DMSO) and 4 μl of H2O2 were added to 4cc of Eagle's Basal Medium (medium A). Each 2-cm^2 well of containing neuronal cell culture was preincubated with 11.12-EET (1.2 μM) for an hour and was replaced with 250 μL of medium A in the presence or absence of 11,12-EET (1.2 μM). […]
as §4

Where “and” joins values, the source holds several entries; their conditions need not be identical. Equal values may be shown once.

For the compound `CCCCC/C=C\CC1OC1C/C=C\C/C=C\CCCC(=O)O` (stereo not drawn) [EET, 11,12-epoxyeicosatrienoic acid], the “Reduction of infarct volume in comparison to vehicle-treated animals” value in test [1] (300 μg/kg group, n=7, p<0.05) is given as “at least 41%”. In addition, the “Infarct volume, of hemispheric volume” value in test [1] (300 μg/kg group, n=7, vehicle 34±3, means ±SE) is 20±3. Besides, the “Infarct Volume, individual animal” value in test [1] (EET 30 μg/kg i.v. infusion) is 32.4 mm^3 and 43.0 mm^3 and 41.9 mm^3 and 27.7 mm^3 and 37.4 mm^3 and 23.7 mm^3; in test [1] (EET 100 μg/kg i.v. infusion) it was 34.1 mm^3 and 37.6 mm^3 and 22.4 mm^3 and 16.3 mm^3 and 24.5 mm^3 and 38.6 mm^3 and 11.8 mm^3; in test [1] (EET 300 μg/kg i.v. infusion) it was 32.5 mm^3 and 13.4 mm^3 and 13.1 mm^3 and 28.3 mm^3 and 11.8 mm^3 and 25.6 mm^3 and 13.6 mm^3. Also, the “Infarct Volume, Mean” value came to 34.3 mm^3 in test [1] (EET 30 μg/kg, n=6); 26.5 mm^3 in test [1] (EET 100 μg/kg, n=7); 19.7 mm^3 in test [1] (EET 300 μg/kg, n=7). Further, the “Time at which the increase in rCBF began” value in test [2] (300 μg/kg i.v.) was 5 to 10 min. Also, the “Effect on rCBF in parietal cortex” value in test [2] (300 μg/kg i.v. total dose infused over 20 min, vehicle did not increase rCBF) was “increased rCBF”. Also, the “Time at which the rCBF increase achieved statistical significance” value in test [2] (300 μg/kg i.v., after infusion) fell in the range of 10 to 15 min. In addition, in test [2] (300 μg/kg i.v., at 40-60 min), the “Maximum rCBF above baseline levels” value was 50%. Also, the “Change in MABP, EET-treated vs. vehicle-treated animals” value in test [3] is given as “No significant changes”. The “Apoptosis at 24 hour” value in test [4] was determined as 51.7%. For the same compound, the “Superoxide production (oxidation of dihydroethidine)” value in test [5] is listed as “decreased”.

These data come from patent US20020077355A1, “Use of epoxyeicosatrienoic acids in the treatment of cerebrovascular conditions” (priority 2000, published 2002).
